According to patent publication US20240287138A1, “CYCLIC PEPTIDES FOR INHIBITING TNF RECEPTOR 1 ACTIVITY” (Merck Sharp & Dohme LLC, priority 2023, published 2024):
Read-outs that look alike come from different tables or passages of the source. Numbered stars: 1 amine (or outer) side, 2 acyl side, 3 side chain; on linkers, the order of the positions; unused ones are H or OH. Square brackets hold non-standard residues; d marks the D form. Peptide text beside a SMILES is read from it. * marks the point of attachment. Trp(βS-Me,7-OMe) = COc1cccc2c([C@H](C)[C@H](N)C(=O)O)c[nH]c12; Phe(4-CH2CH2COOH) = N[C@@H](Cc1ccc(CCC(=O)O)cc1)C(=O)O; Phe(4-SO2NH2) = N[C@@H](Cc1ccc(S(N)(=O)=O)cc1)C(=O)O; Phe(2-F,4-COOH) = N[C@@H](Cc1ccc(C(=O)O)cc1F)C(=O)O; Trp(7-CN) = N#Cc1cccc2c(C[C@H](N)C(=O)O)c[nH]c12; Ala(pyrimidin-5-yl) = N[C@@H](Cc1cncnc1)C(=O)O; Phe(4-CONH2) = NC(=O)c1ccc(C[C@H](N)C(=O)O)cc1; Phe(4-COOH) = N[C@@H](Cc1ccc(C(=O)O)cc1)C(=O)O; 4Pal(3S-Me) = C[C@@H](c1ccncc1)[C@H](N)C(=O)O; Trp(7-aza) = N[C@@H](Cc1c[nH]c2ncccc12)C(=O)O; Pip(5R-OH) = O=C(O)[C@@H]1CC[C@@H](O)CN1; X1 = O=C([C@@H]1CC[C@H](N[*:1])C1)[*:2]; Met(O2) = CS(=O)(=O)CC[C@H](N)C(=O)O; 4Pal = N[C@@H](Cc1ccncc1)C(=O)O; dHyp = O=C(O)[C@H]1C[C@H](O)CN1; Ahp(2) = CCCCC[C@H](N)C(=O)O; hSer = N[C@@H](CCO)C(=O)O; αMeS = C[C@](N)(CO)C(=O)O; Carboxymethyl = O=C(O)C*; Nle = CCCC[C@H](N)C(=O)O; Sar = CNCC(=O)O

Legend:
[1] = target: T1, TNFα-induced NF-κB signal transduction pathway (TNFR1 signaling) in THP-1 cells (Homo sapiens, UniProt P19438); experiment: THP-1 Lucia NF-κB reporter cell assay, inhibition of TNFα-induced NF-κB signaling; format: cell-based; conditions: THP-1 NF-κB Lucia reporter cells, 10 ng/mL TNFα, 16-18 h, secreted luciferase; read-out: THP-1 IC50
T1 sequence (P19438 30-455): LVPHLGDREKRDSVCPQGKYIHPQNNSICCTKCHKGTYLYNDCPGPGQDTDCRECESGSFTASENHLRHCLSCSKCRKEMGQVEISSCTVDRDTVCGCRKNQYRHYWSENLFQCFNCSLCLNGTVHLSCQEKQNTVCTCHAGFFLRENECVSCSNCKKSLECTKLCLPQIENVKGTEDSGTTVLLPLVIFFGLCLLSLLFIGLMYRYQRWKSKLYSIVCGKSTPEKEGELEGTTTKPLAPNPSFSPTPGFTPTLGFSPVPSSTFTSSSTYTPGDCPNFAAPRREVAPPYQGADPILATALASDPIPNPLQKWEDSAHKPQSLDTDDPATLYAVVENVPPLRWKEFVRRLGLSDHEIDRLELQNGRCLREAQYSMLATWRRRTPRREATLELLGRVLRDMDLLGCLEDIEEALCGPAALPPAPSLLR
Procedure, shortened: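 Inhibition of TNFR1-driven NF-κB activation was measured as luminescence of secreted reporter luciferase following overnight (16-18 h) stimulation with 10 ng/mL TNFα.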

human TNFR2 ECD protein = target: T2, human TNFR2 ECD protein (Homo sapiens, UniProt P20333); experiment: SPR off-target binding (selectivity) to human TNFR2 ECD
T2 construct: HRV 3C protease cleavage site (C); 6His (C, cleaved yes); made in house; host or cells: Sf21 insect cells (baculovirus), secreted
T2 sequence (P20333 23-257): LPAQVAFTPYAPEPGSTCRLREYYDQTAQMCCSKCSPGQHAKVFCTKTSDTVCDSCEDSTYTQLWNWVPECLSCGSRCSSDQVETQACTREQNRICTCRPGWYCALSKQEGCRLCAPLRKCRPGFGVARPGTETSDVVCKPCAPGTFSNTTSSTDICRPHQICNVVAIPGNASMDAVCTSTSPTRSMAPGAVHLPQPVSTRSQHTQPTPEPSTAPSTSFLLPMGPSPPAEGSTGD
Procedure, shortened: (§1)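 Biotinylated avi-tagged human TNFR1 or TNFR2 ECD, expressed in Sf21 insect cells, captured on streptavidin SPR chip; peptide analytes run in 10 mM HEPES pH 7.4, 150 mM NaCl, 3 mM EDTA, 0.05% P20, 2% DMSO. kon and koff measured, affinity KA calculated.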

[2] = target: T3, human TNFR1 extracellular domain (ECD) protein (Homo sapiens, UniProt P19438); experiment: SPR binding affinity to captured human TNFR1 ECD
T3 construct: HRV 3C protease cleavage site (C); 6His (C, cleaved yes); made in house; host or cells: Sf21 insect cells (baculovirus), secreted
T3 sequence (P19438 30-211): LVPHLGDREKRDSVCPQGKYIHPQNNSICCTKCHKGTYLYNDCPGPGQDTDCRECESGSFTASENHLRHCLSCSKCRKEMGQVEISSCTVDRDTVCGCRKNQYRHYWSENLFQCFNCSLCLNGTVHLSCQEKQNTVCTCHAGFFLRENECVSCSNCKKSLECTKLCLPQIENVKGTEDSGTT
Procedure, shortened: as §1

[3] = biotinylated human TNFR2 ECD on streptavidin chip, read-out: SPR hTNFR2 KD
[4] = biotinylated human TNFR1 ECD on streptavidin chip, from kon and koff, read-out: SPR hTNFR1 KD

| Structure (SMILES) | IC50 [1] | Kd (human TNFR2 ECD protein; [3]) | Kd [2, 4] | Kd (human TNFR2 ECD protein) | Kd [2] |
| --- | --- | --- | --- | --- | --- |
| CCCC[C@@H]1NC(=O)[C@@H]2CC[C@@H](C2)NC(=O)[C@H]([C@@H](C)c2c[nH]c3c(OC)cccc23)NC(=O)CN(C)C(=O)[C@H](Cc2ccc(CCC(=O)O)cc2)NC(=O)[C@H](Cc2ccc(S(N)(=O)=O)cc2)NC(=O)[C@](C)(CO)NC(=O)[C@H](Cc2c[nH]c3c(C#N)cccc23)NC(=O)[C@H](Cc2ccc(OCC(=O)O)cc2)NC(=O)[C@H](CC(N)=O)NC(=O)[C@H]2C[C@H](O)CN2C(=O)[C@H](Cc2c[nH]c3ncccc23)NC(=O)[C@@H]2CC[C@@H](O)CN2C(=O)[C@H](Cc2ccncc2)NC1=O [SEQ ID NO. 30] (cyclo([4Pal][Pip(5R-OH)][Trp(7-aza)][dHyp]NY(Carboxymethyl)[Trp(7-CN)][αMeS][Phe(4-SO2NH2)][Phe(4-CH2CH2COOH)][Sar][Trp(βS-Me,7-OMe)][X1][Nle])) | 0.5 nM | > 1000 nM | 0.05 nM |  |  |
| CCCCC[C@@H]1NC(=O)[C@@H]2CC[C@@H](C2)NC(=O)[C@H]([C@@H](C)c2c[nH]c3c(OC)cccc23)NC(=O)CN(C)C(=O)[C@H](Cc2ccc(C(N)=O)cc2)NC(=O)[C@H](Cc2ccc(C(N)=O)cc2)NC(=O)[C@](C)(CO)NC(=O)[C@H](Cc2c[nH]c3c(C#N)cccc23)NC(=O)[C@H](Cc2ccc(C(=O)O)cc2)NC(=O)[C@H](CC(N)=O)NC(=O)[C@H]2C[C@H](O)CN2C(=O)[C@H](Cc2c[nH]c3ccccc23)NC(=O)[C@H](CCS(C)(=O)=O)NC(=O)[C@H]([C@@H](C)c2ccncc2)NC1=O [SEQ ID NO. 49] (cyclo([Ahp(2)][4Pal(3S-Me)][Met(O2)]W[dHyp]N[Phe(4-COOH)][Trp(7-CN)][αMeS][Phe(4-CONH2)][Phe(4-CONH2)][Sar][Trp(βS-Me,7-OMe)][X1])) | 0.7 nM |  |  | > 1000 nM | 0.08 nM |
| CCCCC[C@@H]1NC(=O)[C@@H]2CC[C@@H](C2)NC(=O)[C@H]([C@@H](C)c2c[nH]c3c(OC)cccc23)NC(=O)CN(C)C(=O)[C@H](Cc2ccc(C(N)=O)cc2)NC(=O)[C@H](Cc2ccc(C(N)=O)cc2)NC(=O)[C@](C)(CO)NC(=O)[C@H](Cc2c[nH]c3c(C#N)cccc23)NC(=O)[C@H](Cc2ccc(C(=O)O)cc2)NC(=O)[C@H](CC(N)=O)NC(=O)[C@H]2C[C@H](O)CN2C(=O)[C@H](Cc2c[nH]c3ccccc23)NC(=O)[C@H](CCO)NC(=O)[C@H]([C@@H](C)c2ccncc2)NC1=O [SEQ ID NO. 50] (cyclo([Ahp(2)][4Pal(3S-Me)][hSer]W[dHyp]N[Phe(4-COOH)][Trp(7-CN)][αMeS][Phe(4-CONH2)][Phe(4-CONH2)][Sar][Trp(βS-Me,7-OMe)][X1])) | 0.9 nM |  |  | > 1000 nM | 0.04 nM |
| CCCC[C@@H]1NC(=O)[C@@H]2CC[C@@H](C2)NC(=O)[C@H]([C@@H](C)c2c[nH]c3c(OC)cccc23)NC(=O)CN(C)C(=O)[C@H](Cc2ccc(C(=O)O)cc2F)NC(=O)[C@H](Cc2ccc(S(N)(=O)=O)cc2)NC(=O)[C@](C)(CO)NC(=O)[C@H](Cc2c[nH]c3c(C#N)cccc23)NC(=O)[C@H](Cc2ccc(C(=O)O)cc2F)NC(=O)[C@H](CC(N)=O)NC(=O)[C@H]2C[C@H](O)CN2C(=O)[C@H](Cc2c[nH]c3ncccc23)NC(=O)[C@@H]2CC[C@@H](O)CN2C(=O)[C@H](Cc2cncnc2)NC1=O [SEQ ID NO. 51] (cyclo(N[Phe(2-F,4-COOH)][Trp(7-CN)][αMeS][Phe(4-SO2NH2)][Phe(2-F,4-COOH)][Sar][Trp(βS-Me,7-OMe)][X1][Nle][Ala(pyrimidin-5-yl)][Pip(5R-OH)][Trp(7-aza)][dHyp])) | 0.4 nM | > 1000 nM | 0.08 nM |  |  |
